From patent publication US10590085B2, “Heterocyclic amides as kinase inhibitors” (GlaxoSmithKline Intellectual Property Development Limited, priority 2015, dated 2020)

Key:
[1] = test system: mouse L929 fibrosarcoma cells; assay: necroptosis assay in L929 cells; format: cell-based; details: viability by cellular ATP (Cell Titer-Glo), read-out: mean pIC50, inhibition of necrosis in L929 cells (converted)
Method: (§1) The efficacy of RIP1 inhibitors can be tested […] in vitro using a human monocytic leukemia U937 or mouse L929 fibrosarcoma cells in a necroptosis assay. As determined using the method described in He, S. et al. 2009. Cell 137(6):1100-1111 and International Patent Appln. No. PCT/IB2014/059004, now, International Patent Appln. Pub.
(§2) Viability was measured by quantitating cellular levels of ATP using the Cell Titer-Glo kit. All data are means±standard deviation of the mean.

RIP1 kinase = target: T1, RIP1 kinase (Homo sapiens, UniProt Q13546); assay: fluorescent polarization based binding assay; details: mean value, minimum of 2 experiments
T1 sequence (Q13546 1-375 limits assumed): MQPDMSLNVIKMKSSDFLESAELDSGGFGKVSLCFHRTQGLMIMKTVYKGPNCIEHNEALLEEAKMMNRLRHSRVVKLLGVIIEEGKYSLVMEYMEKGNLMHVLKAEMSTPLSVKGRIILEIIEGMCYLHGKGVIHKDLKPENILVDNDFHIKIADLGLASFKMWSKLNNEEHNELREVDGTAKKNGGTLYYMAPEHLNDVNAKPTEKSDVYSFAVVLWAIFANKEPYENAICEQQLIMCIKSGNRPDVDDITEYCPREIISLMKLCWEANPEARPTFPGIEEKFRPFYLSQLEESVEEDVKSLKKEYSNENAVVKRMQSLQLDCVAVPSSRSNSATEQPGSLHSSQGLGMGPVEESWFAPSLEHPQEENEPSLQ
From the text: A fluorescent polarization based binding assay was used to asses the activity of the compounds of this invention, the details of which are disclosed in International Patent Appln. No. PCT/IB2014/059004, now, International Patent Appln. Pub.

[2] = test system: human monocytic leukemia U937 cells; assay: necroptosis assay in U937 cells; format: cell-based; details: viability by cellular ATP (Cell Titer-Glo); for IC50: Homo sapiens, U-937, U937 cells, read-out: mean pIC50, inhibition of necrosis in U937 cells (converted)
Method: as §1, §2

[3] = test system: TNF/zVAD induced temperature loss in mice; assay: TNF-driven systemic inflammatory response syndrome model using TNF plus zVAD (temperature loss); format: in vivo, mouse; details: pre-dosed 15 minutes before i.v. mouse TNF and zVAD

Row | IC50 (RIP1 kinase) | Structure (SMILES) | IC50 [1] | IC50 [2] | further results
1 | – | CC(C)(C)C(=O)N1N=CC[C@H]1c1cccc(F)c1 [Example 68, (S)-1-(5-(3-fluorophenyl)-4,5-dihydro-1H-pyrazol-1-yl)-2,2-dimethyl-propan-1-one 2,2,2-trifluoroacetate] | ~5.01 nM | – | –
2 | ~126 nM | Cc1ccc(C(=O)N2N=CCC2c2ccccc2)cc1 (stereo not drawn) [Example 17, (5-phenyl-4,5-dihydro-1H-pyrazol-1-yl)(p-tolyl)-methanone] | – | ~631 nM | –
3 | – | CC(C)(C)C(=O)N1N=CC[C@H]1c1cccc(Cl)c1 [Example 44, (S)-1-(5-(3-chlorophenyl)-4,5-dihydro-1H-pyrazol-1-yl)-2,2-dimethyl propan-1-one] | ~39.8 nM | – | –
4 | ~31.6 nM | O=C(C1CCN(c2ncccn2)CC1)N1N=CC[C@H]1c1cccnc1 [Example 32, (S)-(5-(pyridin-3-yl)-4,5-dihydro-1H-pyrazol-1-yl)(1-(pyrimidin-2-yl)-piperidin-4-yl)-methanone] | – | ~158 nM | –
5 | ~79.4 nM | CC(C)(C)C(=O)N1N=CC[C@H]1c1cncc(F)c1 [Example 15, (S)-1-(5-(5-fluoro-pyridin-3-yl)-4,5-dihydro-1H-pyrazol-1-yl)-2,2-dimethyl-propan-1-one] | ~20 nM | – | mean pIC50, inhibition of necrosis in U937 cells [2]: ~7.2
6 | ~398 nM | O=C(C1CCN(c2ccccn2)CC1)N1N=CC[C@H]1c1cccnc1 [Example 70, (S)-(1-(pyridin-2-yl)piperidin-4-yl) (5-(pyridin-3-yl)-4,5-dihydro-1H-pyrazol-1-yl)-methanone] | – | – | –
7 | ~31.6 nM | O=C(C1CCN(c2ncccn2)CC1)N1N=CCC1c1cncc(F)c1 (stereo not drawn) [Example 11, (5-(5-fluoropyridin-3-yl)-4,5-dihydro-1H-pyrazol-1-yl)(1-(pyrimidin-2-yl)-piperidin-4-yl)methanone] | – | – | –
8 | 1 to 10 nM | O=C(N1N=CCC1c1ccccc1)C1(F)CCN(c2ncc(F)cn2)CC1 (stereo not drawn) [Example 189, (4-fluoro-1-(5-fluoropyrimidin-2-yl)piperidin-4-yl)(5-phenyl-4,5-dihydro-1H-pyrazol-1-yl)methanone] | – | 1 to 100 nM | –
9 | ~39.8 nM | O=C(C1CCN(c2ccc(F)cn2)CC1)N1N=CCC1c1ccccc1 (stereo not drawn) [Example 2, (1-(5-fluoropyridin-2-yl)-piperidin-4-yl)(5-phenyl-4,5-dihydro-1H-pyrazol-1-yl)methanone] | ~200 nM | – | –
10 | – | O=C(C1CCN(c2ncccn2)CC1)N1N=CC[C@H]1c1ccccc1 [Example 172, (S)-(5-phenyl-4,5-dihydro-1H-pyrazol-1-yl)(1-(pyrimidin-2-yl)piperidin-4-yl)methanone] | ~631 nM | – | –
11 | ~50.1 nM | CC(C)(C)C(=O)N1N=CC[C@H]1c1ccc(Cl)c(Cl)c1 [Example 40, (S)-1-(5-(3,4-dichlorophenyl)-4,5-dihydro-1H-pyrazol-1-yl)-2,2-dimethyl-propan-1-one] | ~15.8 nM | – | –
12 | – | O=C(c1cnsn1)N1CCC(C(=O)N2N=CCC2c2ccccc2)CC1 (stereo not drawn) [Example 155, (1-(1,2,5-thiadiazole-3-carbonyl)piperidin-4-yl)(5-phenyl-4,5-dihydro-1H-pyrazol-1-yl)methanone] | – | 1 to 100 nM | % Inhibition ([3]; 10 mg/kg PO): 49%
13 | ~501 nM | CC(=O)N1CCC(C(=O)N2N=CCC2c2ccc3c(c2)OCO3)CC1 (stereo not drawn) [Example 12, 1-(4-(5-(benzo[d][1,3]-dioxol-5-yl)-4,5-dihydro-1H-pyrazole-1-carbonyl)-piperidin-1-yl)ethanone] | – | – | –
14 | – | CC(C)(C)C(=O)N1N=CC[C@H]1C1CCCCC1 [Example 56, (S)-1-(5-cyclohexyl-4,5-dihydro-1H-pyrazol-1-yl)-2,2-dimethylpropan-1-one] | ~50.1 nM | – | –
15 | – | Cc1ocnc1C(=O)N1CCC(C(=O)N2N=CCC2c2ccccc2)CC1 (stereo not drawn) [Example 158, (5-methyloxazol-4-yl)(4-(5-phenyl-4,5-dihydro-1H-pyrazole-1-carbonyl)piperidin-1-yl)methanone] | – | 1 to 100 nM | % Inhibition ([3]; 10 mg/kg PO): 77%
16 | 1 to 10 nM | O=C(C1CCN(c2ncc(F)cn2)CC1)N1N=CC[C@H]1c1ccccc1 [Example 7, (S)-(1-(5-fluoropyrimidin-2-yl)piperidin-4-yl)(5-phenyl-4,5-dihydro-1H-pyrazol-1-yl)methanone] | – | 1 to 100 nM | –
17 | – | CC(=O)N1CCC(C(=O)N2N=CCC2c2ccccc2)CC1 (stereo not drawn) [Example 193, 1-(4-(5-phenyl-4,5-dihydro-1H-pyrazole-1-carbonyl)piperidin-1-yl)ethanone] | – | – | % Inhibition ([3]; 140 mg/kg PO): 94%

Row | IC50 (RIP1 kinase) | Structure (SMILES) | IC50 [1] | IC50 [2] | further results
18 | ~79.4 nM | CC(C)(C)C(=O)N1N=CC[C@H]1c1ccc(C(F)(F)F)cc1 [Example 62, (S)-2,2-dimethyl-1-(5-(4-(trifluoromethyl)-phenyl)-4,5-dihydro-1H-pyrazol-1-yl)propan-1-one] | – | – | mean pIC50, inhibition of necrosis in U937 cells [2]: ~7.2
19 | – | Cc1ccccc1C1CC=NN1C(=O)C(C)(C)C (stereo not drawn) [Example 60, 2,2-dimethyl-1-(5-(o-tolyl)-4,5-dihydro-1H-pyrazol-1-yl)propan-1-one] | – | 1 to 100 nM | –
20 | ~100 nM | CC(C)(C)C(=O)N1N=CC[C@H]1c1cccc2[nH]ccc12 [Example 93, (S)-1-(5-(1H-indol-4-yl)-4,5-dihydro-1H-pyrazol-1-yl)-2,2-dimethylpropan-1-one] | ~79.4 nM | – | mean pIC50, inhibition of necrosis in U937 cells [2]: ~7.0
21 | – | Cc1cc(F)cc(C2CC=NN2C(=O)C(C)(C)C)c1 (stereo not drawn) [Example 76, 1-(5-(3-fluoro-5-methylphenyl)-4,5-dihydro-1H-pyrazol-1-yl)-2,2-dimethyl-propan-1-one] | – | 1 to 100 nM | –
22 | – | O=C(c1ccc(F)cc1)N1CCC(C(=O)N2N=CCC2c2ccccc2)CC1 (stereo not drawn) [Example 130, (1-(4-fluoro-benzoyl)piperidin-4-yl)(5-phenyl-4,5-dihydro-1H-pyrazol-1-yl)methanone] | – | 1 to 100 nM | –
23 | ~251 nM | CC(C)(C)C(=O)N1N=CC[C@H]1c1ccc2[nH]ccc2c1 [Example 91, (S)-1-(5-(1H-indol-5-yl)-4,5-dihydro-1H-pyrazol-1-yl)-2,2-dimethylpropan-1-one] | ~251 nM | ~100 nM | –
24 | – | O=C(c1cccs1)N1N=CCC1c1ccccc1 (stereo not drawn) [Example 174, (5-phenyl-4,5-dihydro-1H-pyrazol-1-yl)(thiophen-2-yl)methanone 2,2,2-trifluoroacetate] | – | ~501 nM | –
25 | – | O=C(c1cocn1)N1CCC(C(=O)N2N=CCC2c2ccccc2)CC1 (stereo not drawn) [Example 114, oxazol-4-yl(4-(5-phenyl-4,5-dihydro-1H-pyrazole-1-carbonyl)piperidin-1-yl)methanone] | – | 1 to 100 nM | –
26 | 1 to 10 nM | O=C(C1CCN(c2ccc(F)cn2)CC1)N1N=CC[C@H]1c1ccccc1 [Example 3, (S)-(1-(5-fluoropyridin-2-yl)piperidin-4-yl)(5-phenyl-4,5-dihydro-1H-pyrazol-1-yl)methanone] | – | 1 to 100 nM | –
27 | – | O=C(C1CCN(c2ncc(F)cn2)CC1)N1N=CCC1c1ccccc1 (stereo not drawn) [Example 6, (1-(5-fluoropyrimidin-2-yl)piperidin-4-yl)(5-phenyl-4,5-dihydro-1H-pyrazol-1-yl)methanone] | – | 1 to 100 nM | –
28 | ~631 nM | Cc1ccc([C@@H]2CC=NN2C(=O)C(C)(C)C)cn1 [Example 50, (S)-2,2-dimethyl-1-(5-(6-methylpyridin-3-yl)-4,5-dihydro-1H-pyrazol-1-yl)propan-1-one] | ~20 nM | ~158 nM | –
29 | – | O=C(c1ccccc1)N1N=CCC1c1ccccc1 (stereo not drawn) [Example 64, phenyl(5-phenyl-4,5-dihydro-1H-pyrazol-1-yl)-methanone 2,2,2-trifluoroacetate] | – | ~316 nM | –
30 | – | O=C(C1CCN(c2ncc(F)cn2)CC1)N1N=CCC1c1ccc2c(c1)CCC2 (stereo not drawn) [Example 184, (5-(2.3-dihydro-1H-inden-5-yl)-4,5-dihvdro-1H-pyrazol-1-yl)(1-(5-fluoropyrimidin-2-yl)piperidin-4-yl)methanone] | – | 1 to 100 nM | –
31 | – | O=C(c1nc2ccccc2s1)N1CCC(C(=O)N2N=CCC2c2ccccc2)CC1 (stereo not drawn) [Example 139, beno[d]thiazol-2-yl(4-(5-phenyl-4,5-dihydro-1H-pyrazole-1-carbonyl)piperidin-1-yl)methanone] | – | 1 to 100 nM | –
32 | – | O=C(C1CCN(c2nc3ccccc3o2)CC1)N1N=CCC1c1ccccc1 (stereo not drawn) [Example 180, (1-(benzo[d]oxazol-2-yl)piperidin-4-yl)(5-phenyl-4,5-dihydro-1H-pyrazol-1-yl)methanone 2,2,2-trifluoroacetate] | – | 1 to 100 nM | –
33 | – | O=C(c1ccon1)N1CCC(C(=O)N2N=CCC2c2ccccc2)CC1 (stereo not drawn) [Example 153, isoxazol-3-yl(4-(5-phenyl-4,5-dihydro-1H-pyrazole-1-carbonyl)piperidin-1-yl)methanone] | – | 1 to 100 nM | –
